This assay concerns primary rat mixed cortical cells. As to the kind of experiment: In vitro myelination assay (MBP positive myelin strands, fold myelin pixels above background). To be noted: relative to baseline of no added compound; for fold induction at 1 µM / fold induction at 10 µM: Rattus norvegicus; for fold induction at 1 µM: read-out: Fold myelin pixels above background, 1.0 μM; for fold induction at 10 µM: read-out: Fold myelin pixels above background, 10.0 μM. Type of assay: cell-based. Summed up: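 Myelination read as total MBP-immunopositive strand pixels per well, imaged at 10× after fixation on day 14 and expressed relative to untreated wells, at 1.0 and 10.0 μM. Cells: dissociated postnatal day 1 rat cortex, cultured two weeks with compound, re-dosed at days 6 and 10.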

Bounds are passed on as bounds.

In the case of `Fc1cc(Nc2ncn(-c3cccc(C(F)(F)F)c3)n2)cc(N2CCOCC2)c1` [Compound 181, N-(3-fluoro-5-morpholino-phenyl)-1-[3-(trifluoromethyl)phenyl]-1,2,4-triazol-3-amine], the fold induction at 1 µM (1.0 μM compound) is not above 1. In addition, the fold induction at 10 µM (10.0 μM compound) was in the range of 100 to 1000.
Take `COCCCN1CCC(Nc2cc(C)cc(Nc3ncn(-c4ccccc4)n3)c2)CC1` [Compound 182, N1-[1-(3-methoxypropyl)-4-piperidyl]-5-methyl-N3-(1-phenyl-1,2,4-triazol-3-yl)benzene-1,3-diamine]: the fold induction at 1 µM (1.0 μM compound) lay in the range of 1000 to 10000. The fold induction at 10 µM (10.0 μM compound) lay within 1 to 10.
Consider `COc1cc(Nc2ncn(-c3ccc(F)c(F)c3)n2)cc(N2CCN(C3COC3)CC2)c1` [Compound 183, 1-(3,4-difluorophenyl)-N-[3-methoxy-5-[4-(oxetan-3-yl)piperazin-1-yl]phenyl]-1,2,4-triazol-3-amine], for which the fold induction at 1 µM (1.0 μM compound) is 100 to 1000. The fold induction at 10 µM (10.0 μM compound) lay in the range of 10 to 100.
In the same order, the values of `Fc1cc(-n2cnc(Nc3cc(C4CC4)cc(N4CCN(C5COC5)CC4)c3)n2)ccn1` [Compound 184, N-[3-cyclopropyl-5-[4-(oxetan-3-yl)piperazin-1-yl]phenyl]-1-(2-fluoro-4-pyridyl)-1,2,4-triazol-3-amine] are 10 to 100 and 1 to 10.
The like results for `Cc1cc(Nc2ncn(-c3cc(F)cc(F)c3)n2)cc(N2C[C@H]3C[C@@H]2CN3C2COC2)c1` [Compound 185, 1-(3,5-difluorophenyl)-N-[3-methyl-5-[(1R,4R)-2-(oxetan-3-yl)-2,5-diazabicyclo[2.2.1]heptan-5-yl]phenyl]-1,2,4-triazol-3-amine] were, in that order, 100 to 1000 and 1 to 10.
The like results for `Cc1cc(Nc2ncn(-c3ccc(C#N)cc3)n2)cc(N2CCCC2)c1` [Compound 186, 4-[3-(3-methyl-5-pyrrolidin-1-yl-anilino)-1,2,4-triazol-1-yl]benzonitrile] were, in that order, 10 to 100 and 10 to 100.
`CCN(C)Cc1cc(F)cc(-n2cnc(Nc3cc(C)cc(N4CCN(C5COC5)CC4)c3)n2)c1` [Compound 187, 1-[3-[[ethyl(methyl)amino]methyl]-5-fluoro-phenyl]-N-[3-methyl-5-[4-(oxetan-3-yl)piperazin-1-yl]phenyl]-1,2,4-triazol-3-amine]: the fold induction at 1 µM (1.0 μM compound) was in the range of 100 to 1000. Further, where the note is “10.0 μM compound”, the fold induction at 10 µM was not above 1.
Consider `Cc1cc(Nc2ncn(-c3cccc(F)c3)n2)cc(NC2CCN(C3COC3)C2)c1` (stereo not drawn) [Compound 188, N3-[1-(3-fluorophenyl)-1,2,4-triazol-3-yl]-5-methyl-N1-[1-(oxetan-3-yl)pyrrolidin-3-yl]benzene-1,3-diamine], for which the fold induction at 1 µM (1.0 μM compound) is 100 to 1000. Moreover, the fold induction at 10 µM (10.0 μM compound) was not above 1.
The like results for `Fc1cc(-n2cnc(Nc3cc(C(F)F)cc(N4CCN(C5COC5)CC4)c3)n2)ccn1` [Compound 189, N-[3-(difluoromethyl)-5-[4-(oxetan-3-yl)piperazin-1-yl]phenyl]-1-(2-fluoro-4-pyridyl)-1,2,4-triazol-3-amine] were, in that order, 100 to 1000 and not above 1.
As for `Cc1cc(Nc2ncn(-c3cccc(C(F)(F)F)c3)n2)cc(N2CCCC2)c1` [Compound 190, N-(3-methyl-5-pyrrolidin-1-yl-phenyl)-1-[3-(trifluoromethyl)phenyl]-1,2,4-triazol-3-amine], the fold induction at 1 µM (1.0 μM compound) lay within 1 to 10. Moreover, the fold induction at 10 µM (10.0 μM compound) is not above 1.
Turning to `Cc1cc(Nc2ncn(-c3ccc(C(F)(F)F)cc3)n2)cc(N2CCN(C3COC3)CC2)c1` [Compound 191], the fold induction at 1 µM (1.0 μM compound) was not above 1. Also, the fold induction at 10 µM (10.0 μM compound) was 1 to 10.
The like results for `Cc1cc(Nc2ncn(-c3cccc(F)c3)n2)cc(NC2CCN(C3COC3)CC2)c1` [Compound 192, N3-[1-(3-fluorophenyl)-1,2,4-triazol-3-yl]-5-methyl-N1-[1-(oxetan-3-yl)-4-piperidyl]benzene-1,3-diamine] were, in that order, 100 to 1000 and not above 1.
In the same order, the values of `Cc1cc(Nc2ncn(-c3cc(F)cc(F)c3)n2)cc(C2(F)CCN(C3COC3)C2)c1` (stereo not drawn) [Compound 193, 1-(3,5-difluorophenyl)-N-[3-[3-fluoro-1-(oxetan-3-yl)pyrrolidin-3-yl]-5-methyl-phenyl]-1,2,4-triazol-3-amine] are 100 to 1000 and 100 to 1000.
In the same order, the values of `CC(=O)N1CCC(c2cc(C)cc(Nc3ncn(-c4ccccc4)n3)c2)CC1` [Compound 194, 1-[4-[3-methyl-5-[(1-phenyl-1,2,4-triazol-3-yl)amino]phenyl]-1-piperidyl]ethanone] are 1000 to 10000 and not above 1.
Turning to `CCOC(=O)N1CCN(c2cc(C)cc(Nc3ncn(-c4cc(F)cc(F)c4)n3)c2)CC1` [Compound 196, ethyl 4-[3-[[1-(3,5-difluorophenyl)-1,2,4-triazol-3-yl]amino]-5-methyl-phenyl]piperazine-1-carboxylate], the fold induction at 1 µM (1.0 μM compound) was not above 1. For the same molecule, under “10.0 μM compound”, the fold induction at 10 µM is not above 1.
`Cc1cc(Nc2ncn(-c3cc(F)cc(F)c3)n2)cc(N(C)C2COC2)c1` [Compound 197, N3-[1-(3,5-difluorophenyl)-1,2,4-triazol-3-yl]-N1,5-dimethyl-N1-(oxetan-3-yl)benzene-1,3-diamine]: the fold induction at 1 µM (1.0 μM compound) lay within 100 to 1000. The fold induction at 10 µM (10.0 μM compound) lay in the range of 100 to 1000.
With `CCc1cc(Nc2ncn(-c3ccc(F)c(F)c3)n2)cc(N2CC(N3CCOCC3)C2)c1` [Compound 198, 1-(3,4-difluorophenyl)-N-[3-ethyl-5-(3-morpholinoazetidin-1-yl)phenyl]-1,2,4-triazol-3-amine], the fold induction at 1 µM (1.0 μM compound) lay in the range of 100 to 1000. Also, the fold induction at 10 µM (10.0 μM compound) was 10 to 100.
The like results for `Cc1cc(Nc2ncn(-c3cc(F)cc(F)c3)n2)cc(N2CCN(C3CCCOC3)CC2)c1` (stereo not drawn) [Compound 199, 1-(3,5-difluorophenyl)-N-[3-methyl-5-(4-tetrahydropyran-3-ylpiperazin-1-yl)phenyl]-1,2,4-triazol-3-amine] were, in that order, 100 to 1000 and 100 to 1000.
Take `Cc1cc(Nc2ncn(-c3cc(F)cc(F)c3)n2)cc(N2CCN3C(=O)OCC3C2)c1` (stereo not drawn) [Compound 200, 7-[3-[[1-(3,5-difluorophenyl)-1,2,4-triazol-3-yl]amino]-5-methyl-phenyl]-5,6,8,8a-tetrahydro-1H-oxazolo[3,4-a]pyrazin-3-one]: the fold induction at 1 µM (1.0 μM compound) lay in the range of 100 to 1000. The fold induction at 10 µM (10.0 μM compound) lay within 100 to 1000.
For `Cc1cc(Nc2ncn(-c3ccc(F)cc3)n2)cc(OC2CCN(C3COC3)CC2)c1` [Compound 201, 1-(4-fluorophenyl)-N-[3-methyl-5-[[1-(oxetan-3-yl)-4-piperidyl]oxy]phenyl]-1,2,4-triazol-3-amine], the fold induction at 1 µM (1.0 μM compound) is 1000 to 10000. The fold induction at 10 µM (10.0 μM compound) was not above 1.
The like results for `CC1CCN(c2cc(Nc3ncn(-c4ccc(F)c(F)c4)n3)cc(C3CC3)n2)CC1` [Compound 202, 2-cyclopropyl-N-[1-(3,4-difluorophenyl)-1,2,4-triazol-3-yl]-6-(4-methyl-1-piperidyl)pyridin-4-amine] were, in that order, 100 to 1000 and 10 to 100.
For the molecule `CN1CCN(c2cc(F)cc(Nc3ncn(-c4cccc(F)c4)n3)c2)CC1` [Compound 203, N-[3-fluoro-5-(4-methylpiperazin-1-yl)phenyl]-1-(3-fluorophenyl)-1,2,4-triazol-3-amine], the fold induction at 1 µM (1.0 μM compound) fell in the range of 100 to 1000. For the same molecule, the fold induction at 10 µM (10.0 μM compound) is not above 1.
`CCOc1nccc(-n2cnc(Nc3cc(C)cc(N4CCN(C5COC5)CC4)c3)n2)n1` [Compound 204, 1-(2-ethoxypyrimidin-4-yl)-N-[3-methyl-5-[4-(oxetan-3-yl)piperazin-1-yl]phenyl]-1,2,4-triazol-3-amine]: the fold induction at 1 µM (1.0 μM compound) is not above 1. Besides, under “10.0 μM compound”, the fold induction at 10 µM was not above 1.
Consider `Cc1cc(Nc2ncn(-c3cc(F)cc(OC(C)C)c3)n2)cc(N2CCN(C)CC2)c1` [Compound 205, 1-(3-fluoro-5-isopropoxy-phenyl)-N-[3-methyl-5-(4-methylpiperazin-1-yl)phenyl]-1,2,4-triazol-3-amine], for which the fold induction at 1 µM (1.0 μM compound) lay in the range of 100 to 1000. For the same molecule, the fold induction at 10 µM (10.0 μM compound) is not above 1.
With `CCc1cc(F)cc(-n2cnc(Nc3cc(C)cc(N4CCN(C5COC5)CC4)c3)n2)c1` [Compound 206, 1-(3-ethyl-5-fluoro-phenyl)-N-[3-methyl-5-[4-(oxetan-3-yl)piperazin-1-yl]phenyl]-1,2,4-triazol-3-amine], the fold induction at 1 µM (1.0 μM compound) fell in the range of 100 to 1000. Further, under “10.0 μM compound”, the fold induction at 10 µM was 100 to 1000.
For the molecule `Cc1cc(Nc2ncn(-c3ccccn3)n2)cc(C2CCCN(C3COC3)C2)c1` (stereo not drawn) [Compound 207, N-[3-methyl-5-[1-(oxetan-3-yl)-3-piperidyl]phenyl]-1-(2-pyridyl)-1,2,4-triazol-3-amine], the fold induction at 1 µM (1.0 μM compound) was 10 to 100. For the setting “10.0 μM compound”, the fold induction at 10 µM was not above 1.
Regarding `Cc1cc(Nc2ncn(-c3cc(F)cc(F)c3)n2)cc([C@@H]2CCN(C3COC3)C[C@@H]2F)c1.Cc1cc(Nc2ncn(-c3cc(F)cc(F)c3)n2)cc([C@H]2CCN(C3COC3)C[C@H]2F)c1` [Compound 208, 1-(3,5-difluorophenyl)-N-[3-[(3S,4R)-3-fluoro-1-(oxetan-3-yl)-4-piperidyl]-5-methyl-phenyl]-1,2,4-triazol-3-amine; 1-(3,5-difluorophenyl)-N-[3-[(3R,4S)-3-fluoro-1-(oxetan-3-yl)-4-piperidyl]-5-methyl-phenyl]-1,2,4-triazol-3-amine], the “Fold myelin pixels above background, 1.0 μM” value (1.0 μM compound) is “+++ (>100 to 1000x)”. The “Fold myelin pixels above background, 10.0 μM” value (10.0 μM compound) is given as “− (≤1)”.

For the origin of these results see US10766869B2, “Triazoles for the treatment of demyelinating dieases” (Vertex Pharmaceuticals Incorporated, priority 2015, dated 2020).
